According to PubChem BioAssay (NCI):
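Where inhibition never reached the appropriate level, the endpoint shown equals the highest concentration tested. Otherwise, values were interpolated linearly from a five-concentration, 48-hour dose response in 96-well plates. Here, GI50 denotes the concentration required for 50% inhibition of growth. TGI denotes the concentration required for complete inhibition of growth.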

Assays:
Test in all cases: inhibition of tumour cell growth, NCI panel, 48 h
U251 CNS = test system: U251 CNS
786-0 renal = test system: 786-0 renal
HT29 colon = test system: HT29 colon
UO-31 renal = test system: UO-31 renal
CCRF-CEM leukemia = test system: CCRF-CEM leukemia
SF-539 CNS = test system: SF-539 CNS
SNB-75 CNS = test system: SNB-75 CNS
OVCAR-5 ovarian = test system: OVCAR-5 ovarian
ACHN renal = test system: ACHN renal
RPMI-8226 leukemia = test system: RPMI-8226 leukemia
NCI-H23 lung = test system: NCI-H23 lung
COLO 205 colon = test system: COLO 205 colon
M14 melanoma = test system: M14 melanoma
HCC-2998 colon = test system: HCC-2998 colon
BT-549 breast = test system: BT-549 breast
T-47D breast = test system: T-47D breast
HS 578T breast = test system: HS 578T breast
UACC-257 melanoma = test system: UACC-257 melanoma
HCT-116 colon = test system: HCT-116 colon
SK-OV-3 ovarian = test system: SK-OV-3 ovarian
RXF 393 renal = test system: RXF 393 renal
SK-MEL-2 melanoma = test system: SK-MEL-2 melanoma
HOP-62 NSCLC = test system: HOP-62 NSCLC
SF-268 CNS = test system: SF-268 CNS
MDA-MB-435 = test system: MDA-MB-435
K-562 leukemia = test system: K-562 leukemia
A498 renal = test system: A498 renal
IGROV1 ovarian = test system: IGROV1 ovarian
CAKI-1 renal = test system: CAKI-1 renal
NCI/ADR-RES ovarian = test system: NCI/ADR-RES ovarian
MOLT-4 leukemia = test system: MOLT-4 leukemia
SNB-19 CNS = test system: SNB-19 CNS
SK-MEL-28 melanoma = test system: SK-MEL-28 melanoma
SR leukemia = test system: SR leukemia
HL-60(TB) leukemia = test system: HL-60(TB) leukemia
DU-145 prostate = test system: DU-145 prostate
MDA-MB-231 breast = test system: MDA-MB-231 breast
A549 NSCLC = test system: A549 NSCLC
KM12 colon = test system: KM12 colon
NCI-H460 lung = test system: NCI-H460 lung
EKVX NSCLC = test system: EKVX NSCLC
UACC-62 melanoma = test system: UACC-62 melanoma
SN12C renal = test system: SN12C renal
HOP-92 NSCLC = test system: HOP-92 NSCLC
NCI-H522 lung = test system: NCI-H522 lung
SW-620 colon = test system: SW-620 colon
MCF7 breast = test system: MCF7 breast
OVCAR-8 ovarian = test system: OVCAR-8 ovarian
SK-MEL-5 melanoma = test system: SK-MEL-5 melanoma
TK-10 renal = test system: TK-10 renal
LOX IMVI melanoma = test system: LOX IMVI melanoma
PC-3 prostate = test system: PC-3 prostate
SF-295 CNS = test system: SF-295 CNS
HCT-15 colon = test system: HCT-15 colon

Q: Which results are given for `CCOC(=O)C(NC(=O)Nc1ccc(C)cc1)(OCC)C(F)(F)F` (stereo unspecified)?
A: TGI (U251 CNS): > 100 µM; TGI (786-0 renal): > 100 µM; TGI (HT29 colon): > 100 µM; TGI (UO-31 renal): > 100 µM; TGI (CCRF-CEM leukemia): > 100 µM; TGI (SF-539 CNS): > 100 µM; TGI (SNB-75 CNS): > 100 µM; TGI (OVCAR-5 ovarian): > 100 µM; TGI (ACHN renal): > 100 µM; TGI (RPMI-8226 leukemia): > 100 µM; TGI (NCI-H23 lung): > 100 µM; TGI (COLO 205 colon): > 100 µM; TGI (M14 melanoma): > 100 µM; TGI (HCC-2998 colon): > 100 µM; TGI (BT-549 breast): > 100 µM; TGI (T-47D breast): > 100 µM; TGI (HS 578T breast): > 100 µM; TGI (UACC-257 melanoma): > 100 µM; TGI (HCT-116 colon): > 100 µM; TGI (SK-OV-3 ovarian): > 100 µM; TGI (RXF 393 renal): > 100 µM; TGI (SK-MEL-2 melanoma): > 100 µM; TGI (HOP-62 NSCLC): > 100 µM; TGI (SF-268 CNS): > 100 µM; TGI (MDA-MB-435): > 100 µM; TGI (K-562 leukemia): > 100 µM; TGI (A498 renal): > 100 µM; TGI (IGROV1 ovarian): > 100 µM; TGI (CAKI-1 renal): > 100 µM; TGI (NCI/ADR-RES ovarian): > 100 µM; TGI (MOLT-4 leukemia): > 100 µM; TGI (SNB-19 CNS): > 100 µM; TGI (SK-MEL-28 melanoma): > 100 µM; TGI (SR leukemia): > 100 µM; TGI (HL-60(TB) leukemia): > 100 µM

Q: `[N-]=[N+]=NCCCn1c2c(c3ccc([N+](=O)[O-])cc3c1=O)C(=O)c1ccccc1-2` was tested. Which GI50 (U251 CNS) did it give?
A: Its GI50 is 4.28 µM.

Q: And the TGI (U251 CNS)?
A: The TGI was over 100 µM.

Q: What about the GI50 (786-0 renal) of the same molecule?
A: The GI50 was over 100 µM.

Q: And the TGI (786-0 renal)?
A: The TGI was over 100 µM.

Q: And the GI50 (DU-145 prostate)?
A: The GI50 was over 100 µM.

Q: And the TGI (DU-145 prostate)?
A: The TGI was over 100 µM.

Q: And the GI50 (HT29 colon)?
A: Its GI50 is over 100 µM.

Q: What about the TGI (HT29 colon) of the same molecule?
A: Its TGI is over 100 µM.

Q: And the GI50 (UO-31 renal)?
A: Its GI50 is over 100 µM.

Q: And the TGI (UO-31 renal)?
A: The TGI was over 100 µM.

Q: And the GI50 (MDA-MB-231 breast)?
A: Its GI50 is 3.57 µM.

Q: And the TGI (MDA-MB-231 breast)?
A: Its TGI is 43.2 µM.

Q: What about the GI50 (A549 NSCLC) of the same molecule?
A: The GI50 was 14.4 µM.

Q: And the TGI (A549 NSCLC)?
A: Its TGI is over 100 µM.

Q: What about the GI50 (KM12 colon) of the same molecule?
A: Its GI50 is over 100 µM.

Q: What about the TGI (KM12 colon) of the same molecule?
A: Its TGI is over 100 µM.

Q: And the GI50 (OVCAR-5 ovarian)?
A: The GI50 was over 100 µM.

Q: And the TGI (OVCAR-5 ovarian)?
A: The TGI was over 100 µM.

Q: And the GI50 (ACHN renal)?
A: The GI50 was 9.14 µM.

Q: What about the TGI (ACHN renal) of the same molecule?
A: Its TGI is over 100 µM.

Q: And the GI50 (RPMI-8226 leukemia)?
A: The GI50 was 6.04 µM.

Q: And the TGI (RPMI-8226 leukemia)?
A: The TGI was over 100 µM.

Q: And the GI50 (NCI-H23 lung)?
A: The GI50 was 9.25 µM.

Q: And the TGI (NCI-H23 lung)?
A: The TGI was over 100 µM.

Q: And the GI50 (M14 melanoma)?
A: The GI50 was over 100 µM.

Q: And the TGI (M14 melanoma)?
A: The TGI was over 100 µM.

Q: And the GI50 (NCI-H460 lung)?
A: Its GI50 is 8.65 µM.

Q: What about the TGI (NCI-H460 lung) of the same molecule?
A: Its TGI is over 100 µM.

Q: What about the GI50 (BT-549 breast) of the same molecule?
A: The GI50 was 27.4 µM.

Q: And the TGI (BT-549 breast)?
A: Its TGI is over 100 µM.

Q: And the GI50 (UACC-257 melanoma)?
A: Its GI50 is 0.244 µM.

Q: And the TGI (UACC-257 melanoma)?
A: Its TGI is 56.8 µM.

Q: What about the GI50 (HCT-116 colon) of the same molecule?
A: Its GI50 is 8.17 µM.

Q: And the TGI (HCT-116 colon)?
A: The TGI was over 100 µM.

Q: And the GI50 (SK-OV-3 ovarian)?
A: Its GI50 is over 100 µM.

Q: And the TGI (SK-OV-3 ovarian)?
A: The TGI was over 100 µM.

Q: What about the GI50 (RXF 393 renal) of the same molecule?
A: The GI50 was 0.0923 µM.

Q: What about the TGI (RXF 393 renal) of the same molecule?
A: The TGI was 78.2 µM.

Q: What about the GI50 (EKVX NSCLC) of the same molecule?
A: Its GI50 is over 100 µM.

Q: And the TGI (EKVX NSCLC)?
A: The TGI was over 100 µM.

Q: And the GI50 (SK-MEL-2 melanoma)?
A: The GI50 was over 100 µM.

Q: And the TGI (SK-MEL-2 melanoma)?
A: The TGI was over 100 µM.

Q: And the GI50 (UACC-62 melanoma)?
A: The GI50 was 29.6 µM.

Q: What about the TGI (UACC-62 melanoma) of the same molecule?
A: The TGI was over 100 µM.

Q: What about the GI50 (HOP-62 NSCLC) of the same molecule?
A: The GI50 was over 100 µM.

Q: And the TGI (HOP-62 NSCLC)?
A: The TGI was over 100 µM.

Q: And the GI50 (SN12C renal)?
A: Its GI50 is 72.5 µM.

Q: What about the TGI (SN12C renal) of the same molecule?
A: Its TGI is over 100 µM.

Q: What about the GI50 (HOP-92 NSCLC) of the same molecule?
A: Its GI50 is 45.1 µM.

Q: And the TGI (HOP-92 NSCLC)?
A: Its TGI is over 100 µM.

Q: And the GI50 (NCI-H522 lung)?
A: The GI50 was 70.3 µM.

Q: And the TGI (NCI-H522 lung)?
A: The TGI was over 100 µM.

Q: And the GI50 (SF-268 CNS)?
A: The GI50 was 79.8 µM.

Q: And the TGI (SF-268 CNS)?
A: Its TGI is over 100 µM.

Q: And the GI50 (SW-620 colon)?
A: The GI50 was 5.26 µM.

Q: And the TGI (SW-620 colon)?
A: The TGI was over 100 µM.

Q: What about the GI50 (MCF7 breast) of the same molecule?
A: The GI50 was 4.19 µM.

Q: What about the TGI (MCF7 breast) of the same molecule?
A: The TGI was over 100 µM.

Q: And the GI50 (MDA-MB-435)?
A: The GI50 was over 100 µM.

Q: And the TGI (MDA-MB-435)?
A: The TGI was over 100 µM.

Q: And the GI50 (K-562 leukemia)?
A: Its GI50 is 1.05 µM.

Q: And the TGI (K-562 leukemia)?
A: The TGI was over 100 µM.

Q: And the TGI (OVCAR-8 ovarian)?
A: The TGI was 0.061 µM.

Q: What about the GI50 (IGROV1 ovarian) of the same molecule?
A: The GI50 was over 100 µM.

Q: And the TGI (IGROV1 ovarian)?
A: The TGI was over 100 µM.

Q: What about the GI50 (SK-MEL-5 melanoma) of the same molecule?
A: Its GI50 is 2.39 µM.

Q: And the TGI (SK-MEL-5 melanoma)?
A: Its TGI is 9.31 µM.

Q: What about the GI50 (CAKI-1 renal) of the same molecule?
A: The GI50 was 5.11 µM.

Q: And the TGI (CAKI-1 renal)?
A: The TGI was 43.3 µM.

Q: What about the GI50 (TK-10 renal) of the same molecule?
A: Its GI50 is 99.2 µM.

Q: And the TGI (TK-10 renal)?
A: Its TGI is over 100 µM.

Q: What about the GI50 (NCI/ADR-RES ovarian) of the same molecule?
A: Its GI50 is over 100 µM.

Q: What about the TGI (NCI/ADR-RES ovarian) of the same molecule?
A: The TGI was over 100 µM.

Q: What about the TGI (MOLT-4 leukemia) of the same molecule?
A: Its TGI is over 100 µM.

Q: And the GI50 (SK-MEL-28 melanoma)?
A: The GI50 was over 100 µM.

Q: What about the TGI (SK-MEL-28 melanoma) of the same molecule?
A: Its TGI is over 100 µM.

Q: And the GI50 (LOX IMVI melanoma)?
A: Its GI50 is 8.66 µM.

Q: And the TGI (LOX IMVI melanoma)?
A: The TGI was over 100 µM.

Q: What about the GI50 (PC-3 prostate) of the same molecule?
A: The GI50 was 38 µM.

Q: And the TGI (PC-3 prostate)?
A: Its TGI is over 100 µM.

Q: And the GI50 (SF-295 CNS)?
A: Its GI50 is 4.82 µM.

Q: And the TGI (SF-295 CNS)?
A: The TGI was over 100 µM.

Q: What about the GI50 (HCT-15 colon) of the same molecule?
A: Its GI50 is 75.5 µM.

Q: And the TGI (HCT-15 colon)?
A: Its TGI is over 100 µM.

Q: And the GI50 (HL-60(TB) leukemia)?
A: The GI50 was 0.0101 µM.

Q: What about the TGI (HL-60(TB) leukemia) of the same molecule?
A: Its TGI is over 100 µM.
